Where two headings read alike, the source gives them in different places.
Key:
EGFR L858R/C797S = EGFR L858R/C797S (Homo sapiens, UniProt P00533, C797S/L858R); test: Biochemical EGFR kinase assay (Lance Ultra TR-FRET), double mutant L858R/C797S
How it was run: (§1)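 Enzyme reactions lasted 1 hour at room temperature with test compounds between 0.003 and 10 μM, followed by 10 mM EDTA quench.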

EGFR del19/C797S = EGFR del19/C797S (Homo sapiens, UniProt P00533, C797S/DEL746-750); test: Biochemical EGFR kinase assay (Lance Ultra TR-FRET), double mutant del19/C797S
How it was run: as §1

EGFR wildtype = EGFR wildtype (Homo sapiens, UniProt P00533); test: Biochemical EGFR kinase assay (Lance Ultra TR-FRET), wildtype
How it was run: as §1

EGFR L858R/T790M/C797S = EGFR L858R/T790M/C797S (Homo sapiens, UniProt P00533, C797S/L858R/T790M); test: Biochemical EGFR kinase assay (Lance Ultra TR-FRET), triple mutant L858R/T790M/C797S
How it was run: as §1

EGFR del19/T790M/C797S = EGFR del19/T790M/C797S (Homo sapiens, UniProt P00533, C797S/DEL746-750/T790M); test: Biochemical EGFR kinase assay (Lance Ultra TR-FRET), triple mutant del19/T790M/C797S
How it was run: as §1

[1] = IC50 L858R/T790M/C797S, 100 μM ATP
[2] = IC50 del19/T790M/C797S, 100 μM ATP
[3] = ATP at Km, read-out: IC50 L858R/C797S, Km ATP
[4] = ATP at Km, read-out: IC50 del19/C797S, Km ATP
[5] = ATP at Km, read-out: IC50 WT, Km ATP
[6] = ATP at Km, read-out: IC50 L858R/T790M/C797S, Km ATP
[7] = ATP at Km, read-out: IC50 del19/T790M/C797S, Km ATP

Chain of EGFR del19/C797S (P00533 with tags, fused parts or gaps DEL746-750/C797S): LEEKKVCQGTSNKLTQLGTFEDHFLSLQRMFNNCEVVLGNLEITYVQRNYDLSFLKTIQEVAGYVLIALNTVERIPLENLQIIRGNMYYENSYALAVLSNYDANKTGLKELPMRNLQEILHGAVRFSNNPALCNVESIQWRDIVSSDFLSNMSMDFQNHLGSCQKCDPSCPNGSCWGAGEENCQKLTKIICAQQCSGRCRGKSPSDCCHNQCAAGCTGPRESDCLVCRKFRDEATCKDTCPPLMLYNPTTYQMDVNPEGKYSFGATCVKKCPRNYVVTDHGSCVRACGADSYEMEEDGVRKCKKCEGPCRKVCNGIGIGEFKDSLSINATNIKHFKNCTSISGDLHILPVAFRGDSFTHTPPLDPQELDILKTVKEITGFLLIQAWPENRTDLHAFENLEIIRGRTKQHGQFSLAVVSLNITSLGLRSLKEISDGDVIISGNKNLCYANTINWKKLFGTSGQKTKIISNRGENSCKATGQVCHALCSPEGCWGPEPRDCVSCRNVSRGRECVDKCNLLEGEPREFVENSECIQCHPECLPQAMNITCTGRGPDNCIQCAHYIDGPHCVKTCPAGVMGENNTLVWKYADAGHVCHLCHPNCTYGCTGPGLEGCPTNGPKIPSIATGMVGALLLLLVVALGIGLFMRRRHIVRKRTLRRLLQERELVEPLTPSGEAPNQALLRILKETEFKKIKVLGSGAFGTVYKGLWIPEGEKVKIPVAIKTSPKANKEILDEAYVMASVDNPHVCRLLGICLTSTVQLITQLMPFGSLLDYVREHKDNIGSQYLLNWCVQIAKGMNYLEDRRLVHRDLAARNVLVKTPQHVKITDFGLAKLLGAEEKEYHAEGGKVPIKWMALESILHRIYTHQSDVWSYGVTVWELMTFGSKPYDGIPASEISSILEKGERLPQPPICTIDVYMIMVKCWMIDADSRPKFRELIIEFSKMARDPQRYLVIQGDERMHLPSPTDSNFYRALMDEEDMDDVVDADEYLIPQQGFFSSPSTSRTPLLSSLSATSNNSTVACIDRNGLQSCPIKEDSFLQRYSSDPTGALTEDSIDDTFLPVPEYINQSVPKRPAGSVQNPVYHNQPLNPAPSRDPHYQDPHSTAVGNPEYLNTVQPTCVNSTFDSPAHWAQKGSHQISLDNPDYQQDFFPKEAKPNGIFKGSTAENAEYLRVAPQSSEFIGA
Chain of EGFR L858R/C797S (P00533 25-1210 C797S/L858R): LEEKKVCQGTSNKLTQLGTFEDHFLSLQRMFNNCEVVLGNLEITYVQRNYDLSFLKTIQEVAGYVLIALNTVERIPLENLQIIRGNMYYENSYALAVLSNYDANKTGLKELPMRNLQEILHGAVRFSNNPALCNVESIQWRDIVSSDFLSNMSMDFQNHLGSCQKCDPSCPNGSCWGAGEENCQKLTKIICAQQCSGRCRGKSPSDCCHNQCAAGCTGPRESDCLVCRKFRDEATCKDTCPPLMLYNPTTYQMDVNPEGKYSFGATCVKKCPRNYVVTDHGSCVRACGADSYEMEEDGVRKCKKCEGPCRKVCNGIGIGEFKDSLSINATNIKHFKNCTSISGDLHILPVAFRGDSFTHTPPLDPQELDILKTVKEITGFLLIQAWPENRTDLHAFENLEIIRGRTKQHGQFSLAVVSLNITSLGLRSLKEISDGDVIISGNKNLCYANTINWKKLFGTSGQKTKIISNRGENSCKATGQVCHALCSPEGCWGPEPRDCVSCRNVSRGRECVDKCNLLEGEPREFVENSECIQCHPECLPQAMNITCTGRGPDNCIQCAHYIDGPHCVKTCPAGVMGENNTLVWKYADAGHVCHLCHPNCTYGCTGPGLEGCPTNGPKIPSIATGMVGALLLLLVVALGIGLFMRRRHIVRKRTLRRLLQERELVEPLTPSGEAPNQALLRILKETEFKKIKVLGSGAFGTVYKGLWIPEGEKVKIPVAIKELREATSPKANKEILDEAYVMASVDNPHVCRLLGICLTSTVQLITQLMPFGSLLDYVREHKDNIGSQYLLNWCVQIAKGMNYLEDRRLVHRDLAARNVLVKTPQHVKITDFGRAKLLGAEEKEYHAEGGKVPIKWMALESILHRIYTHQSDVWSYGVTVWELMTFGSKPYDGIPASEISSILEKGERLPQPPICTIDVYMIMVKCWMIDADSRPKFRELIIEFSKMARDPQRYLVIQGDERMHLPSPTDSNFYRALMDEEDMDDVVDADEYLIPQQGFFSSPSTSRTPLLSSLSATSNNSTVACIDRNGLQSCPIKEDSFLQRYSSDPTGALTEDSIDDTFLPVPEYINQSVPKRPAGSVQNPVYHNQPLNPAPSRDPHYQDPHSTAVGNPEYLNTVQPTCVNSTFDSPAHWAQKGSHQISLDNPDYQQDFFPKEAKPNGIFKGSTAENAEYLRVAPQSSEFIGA
Chain of EGFR wildtype (P00533 25-1210): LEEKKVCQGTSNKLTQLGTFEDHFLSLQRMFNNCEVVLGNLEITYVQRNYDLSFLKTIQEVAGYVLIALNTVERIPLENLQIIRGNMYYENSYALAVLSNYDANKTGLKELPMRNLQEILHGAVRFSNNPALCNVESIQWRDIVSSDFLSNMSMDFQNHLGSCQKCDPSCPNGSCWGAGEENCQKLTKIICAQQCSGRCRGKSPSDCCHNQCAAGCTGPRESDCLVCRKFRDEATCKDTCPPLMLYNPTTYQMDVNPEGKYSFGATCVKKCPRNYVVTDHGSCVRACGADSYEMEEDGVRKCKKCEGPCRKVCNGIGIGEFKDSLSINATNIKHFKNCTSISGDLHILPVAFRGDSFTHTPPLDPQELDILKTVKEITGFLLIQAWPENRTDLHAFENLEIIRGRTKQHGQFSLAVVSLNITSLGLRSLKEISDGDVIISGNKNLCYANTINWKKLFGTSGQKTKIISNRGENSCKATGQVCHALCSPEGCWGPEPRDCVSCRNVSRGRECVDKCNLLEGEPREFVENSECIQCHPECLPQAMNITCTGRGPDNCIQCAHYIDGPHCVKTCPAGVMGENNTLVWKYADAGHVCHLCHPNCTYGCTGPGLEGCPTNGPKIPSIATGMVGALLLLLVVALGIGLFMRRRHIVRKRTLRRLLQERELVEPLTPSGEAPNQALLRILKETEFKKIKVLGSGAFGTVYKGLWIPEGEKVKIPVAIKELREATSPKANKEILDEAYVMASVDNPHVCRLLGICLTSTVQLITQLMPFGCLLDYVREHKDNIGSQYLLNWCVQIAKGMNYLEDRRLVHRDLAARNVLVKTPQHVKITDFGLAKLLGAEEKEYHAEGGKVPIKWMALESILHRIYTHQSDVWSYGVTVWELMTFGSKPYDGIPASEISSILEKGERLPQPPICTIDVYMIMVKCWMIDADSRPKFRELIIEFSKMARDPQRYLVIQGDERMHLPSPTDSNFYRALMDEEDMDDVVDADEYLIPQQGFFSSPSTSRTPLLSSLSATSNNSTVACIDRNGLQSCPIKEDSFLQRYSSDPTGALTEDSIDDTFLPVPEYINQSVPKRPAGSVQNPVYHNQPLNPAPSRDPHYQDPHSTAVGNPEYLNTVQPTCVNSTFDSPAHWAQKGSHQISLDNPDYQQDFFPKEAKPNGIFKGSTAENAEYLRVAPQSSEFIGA
Chain of EGFR L858R/T790M/C797S (P00533 25-1210 T790M/C797S/L858R): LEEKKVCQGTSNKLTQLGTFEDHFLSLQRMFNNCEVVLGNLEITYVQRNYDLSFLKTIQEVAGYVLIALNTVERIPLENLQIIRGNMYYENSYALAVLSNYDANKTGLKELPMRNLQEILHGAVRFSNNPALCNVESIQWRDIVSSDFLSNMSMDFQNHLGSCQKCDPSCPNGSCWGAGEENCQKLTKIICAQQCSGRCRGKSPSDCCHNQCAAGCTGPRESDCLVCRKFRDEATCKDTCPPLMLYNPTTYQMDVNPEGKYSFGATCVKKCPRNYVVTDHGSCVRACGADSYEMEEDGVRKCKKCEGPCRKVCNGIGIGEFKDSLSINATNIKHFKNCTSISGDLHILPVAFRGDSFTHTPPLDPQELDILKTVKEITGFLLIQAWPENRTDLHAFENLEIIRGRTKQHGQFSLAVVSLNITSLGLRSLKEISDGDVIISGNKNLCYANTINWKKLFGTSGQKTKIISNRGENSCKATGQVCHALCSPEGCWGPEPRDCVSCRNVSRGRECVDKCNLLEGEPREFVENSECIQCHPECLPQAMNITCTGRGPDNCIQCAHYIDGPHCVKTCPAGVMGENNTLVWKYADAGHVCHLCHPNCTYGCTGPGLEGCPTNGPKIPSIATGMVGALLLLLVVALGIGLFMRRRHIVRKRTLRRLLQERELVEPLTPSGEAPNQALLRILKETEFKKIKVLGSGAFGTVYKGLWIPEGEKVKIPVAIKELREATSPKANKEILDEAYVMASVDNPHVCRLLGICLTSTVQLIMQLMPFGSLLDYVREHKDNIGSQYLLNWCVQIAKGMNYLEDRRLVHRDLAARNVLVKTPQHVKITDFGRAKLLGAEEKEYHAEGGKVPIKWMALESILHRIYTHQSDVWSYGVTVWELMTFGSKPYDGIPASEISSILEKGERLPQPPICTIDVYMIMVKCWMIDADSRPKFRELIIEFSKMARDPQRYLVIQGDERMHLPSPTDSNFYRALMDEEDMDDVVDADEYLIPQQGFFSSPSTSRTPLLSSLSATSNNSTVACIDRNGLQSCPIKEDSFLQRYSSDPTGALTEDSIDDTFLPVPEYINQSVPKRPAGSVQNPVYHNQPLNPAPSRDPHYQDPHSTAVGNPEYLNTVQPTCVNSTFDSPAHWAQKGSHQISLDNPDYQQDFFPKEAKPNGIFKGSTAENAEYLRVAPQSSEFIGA

SMILES	IC50 (EGFR L858R/C797S; IC50 L858R/C797S, 100 μM ATP) [nM]	IC50 (EGFR del19/C797S; IC50 del19/C797S, 100 μM ATP) [nM]	IC50 (EGFR wildtype; IC50 WT, 100 μM ATP) [nM]	IC50 (EGFR L858R/T790M/C797S; [1]) [nM]	IC50 (EGFR del19/T790M/C797S; [2]) [nM]	IC50 (EGFR L858R/C797S; [3]) [nM]	IC50 (EGFR del19/C797S; [4]) [nM]	IC50 (EGFR wildtype; [5]) [nM]	IC50 (EGFR L858R/T790M/C797S; [6]) [nM]	IC50 (EGFR del19/T790M/C797S; [7]) [nM]
CC1CCN(S(=O)(=O)c2ccc(-c3cnc(Nc4ccnc(-c5cnn(S(=O)(=O)C6CC6)c5)n4)cc3N[C@H]3CC[C@@H](C(C)(C)O)CC3)nc2)CC1 [Example 187, 2-((1s,4s)-4-((6′-((2-(1-(Cyclopropylsulfonyl)-1H-pyrazol-4-yl)pyrimidin-4-yl)amino)-5-((4-methylpiperidin-1-yl)sulfonyl)-[2,3′-bipyridin]-4′-yl)amino)cyclohexyl)propan-2-ol]	1950	178	> 10000	96.9	239					
CN1CCN(S(=O)(=O)c2ccc(-c3cnc(Nc4ccnc(-c5cnn(S(=O)(=O)C6CC6)c5)n4)cc3N[C@H]3CC[C@@](C)(O)CC3)nc2)CC1 [Example 188, (1s,4s)-4-((6′-((2-(1-(Cyclopropylsulfonyl)-1H-pyrazol-4-yl)pyrimidin-4-yl)amino)-5-((4-methylpiperazin-1-yl)sulfonyl)-[2,3′-bipyridin]-4′-yl)amino)-1-methylcyclohexan-1-ol]	11.3	1.8	> 10000	1	1.1	0.8	2.3	9.5		
CN1CCN(S(=O)(=O)c2ccc(-c3cnc(Nc4ccnc(-c5cnn(S(=O)(=O)C6CC6)c5)n4)cc3N[C@H]3CC[C@@H](CO)CC3)nc2)CC1 [Example 189, ((1s,4s)-4-((6′-((2-(1-(Cyclopropylsulfonyl)-1H-pyrazol-4-yl)pyrimidin-4-yl)amino)-5-((4-methylpiperazin-1-yl)sulfonyl)-[2,3′-bipyridin]-4′-yl)amino)cyclohexyl)methanol]	7.9	1.7	1770	0.8	1.4	0.9	2.2	6.9		
C[C@]1(O)CC[C@@H](Nc2nccc(-c3cnc(Nc4ccnc(-c5cnn(S(=O)(=O)C6CC6)c5)n4)cc3N[C@H]3CC[C@@](C)(O)CC3)n2)CC1 [Example 191, (1s,4s)-4-((4-(6-((2-(1-(Cyclopropylsulfonyl)-1H-pyrazol-4-yl)pyrimidin-4-yl)amino)-4-(((1s,4s)-4-hydroxy-4-methylcyclohexyl)amino)pyridin-3-yl)pyrimidin-2-yl)amino)-1-methylcyclohexan-1-ol]	26.4	6.5	> 10000		1.7	1.6	2.3	27.4	0.3	1
O=S(=O)(C1CC1)n1cc(-c2nccc(Nc3cc(N[C@H]4CC[C@@H](CO)CC4)c(-c4ccnc(N[C@H]5CC[C@@H](CO)CC5)n4)cn3)n2)cn1 [Example 192, ((1s,4s)-4-((4-(6-((2-(1-(Cyclopropylsulfonyl)-1H-pyrazol-4-yl)pyrimidin-4-yl)amino)-4-(((1s,4s)-4-(hydroxymethyl)cyclohexyl)amino)pyridin-3-yl)pyrimidin-2-yl)amino)cyclohexyl)methanol]	7.8	2	6510	0.5	0.6					
CC(C)(O)[C@H]1CC[C@@H](Nc2nccc(-c3cnc(Nc4ccnc(-c5cnn(S(=O)(=O)C6CC6)c5)n4)cc3N[C@H]3CC[C@@H](C(C)(C)O)CC3)n2)CC1 [Example 193, 2-((1s,4s)-4-((4-(6-((2-(1-(Cyclopropylsulfonyl)-1H-pyrazol-4-yl)pyrimidin-4-yl)amino)-4-(((1s,4s)-4-(2-hydroxypropan-2-yl)cyclohexyl)amino)pyridin-3-yl)pyrimidin-2-yl)amino)cyclohexyl)propan-2-ol]	187	23.5	> 10000	3.8	3					
C[C@]1(O)CC[C@@H](Nc2cc(Nc3ccnc(-c4cnn(S(=O)(=O)C5CC5)c4)n3)ncc2-c2ccc(OC(F)(F)F)cn2)CC1 [Example 194, (1s,4s)-4-((6′-((2-(1-(Cyclopropylsulfonyl)-1H-pyrazol-4-yl)pyrimidin-4-yl)amino)-5-(trifluoromethoxy)-[2,3′-bipyridin]-4′-yl)amino)-1-methylcyclohexan-1-ol]	43.7	16.9	> 10000	2.2	3.4	3.9	5.5	36.7	0.6	2.5
O=S(=O)(C1CC1)n1cc(-c2nccc(Nc3cc(N[C@H]4CC[C@@H](CO)CC4)c(-c4ccc(OC(F)(F)F)cn4)cn3)n2)cn1 [Example 195, ((1s,4s)-4-((6′-((2-(1-(Cyclopropylsulfonyl)-1H-pyrazol-4-yl)pyrimidin-4-yl)amino)-5-(trifluoromethoxy)-[2,3′-bipyridin]-4′-yl)amino)cyclohexyl)methanol]	36.9	16.3	> 10000	2.5	3.6	3.6	6.6	25	1	3.3
CC(C)(O)[C@H]1CC[C@@H](Nc2cc(Nc3ccnc(-c4cnn(S(=O)(=O)C5CC5)c4)n3)ncc2-c2ccc(OC(F)(F)F)cn2)CC1 [Example 196, 2-((1s,4s)-4-((6′-((2-(1-(Cyclopropylsulfonyl)-1H-pyrazol-4-yl)pyrimidin-4-yl)amino)-5-(trifluoromethoxy)-[2,3′-bipyridin]-4′-yl)amino)cyclohexyl)propan-2-ol]	> 10000	135	> 10000	9.5	14.7					
CN(C)C[C@H]1CC[C@@H](Nc2cc(Nc3ccnc(-c4cnn(S(=O)(=O)C5CC5)c4)n3)ncc2-c2ccc(OC(F)(F)F)cn2)CC1 [Example 197, N^6′-(2-(1-(Cyclopropylsulfonyl)-1H-pyrazol-4-yl)pyrimidin-4-yl)-N^4′-((1s,4s)-4-((dimethylamino)methyl)cyclohexyl)-5-(trifluoromethoxy)-[2,3′-bipyridine]-4′,6′-diamine]	5.3	1.1	1240	0.5	0.5	0.3	1	3	0.3	0.6
CC1(O)CCC(Nc2cc(Nc3ccnc(-c4cnn(S(=O)(=O)C5CC5)c4)n3)ncc2-c2cc(S(C)(=O)=O)ccn2)CC1 (centres unmarked) [Example 198, (1s,4s)-4-((6′-((2-(1-(Cyclopropylsulfonyl)-1H-pyrazol-4-yl)pyrimidin-4-yl)amino)-4-(methylsulfonyl)-[2,3′-bipyridin]-4′-yl)amino)-1-methylcyclohexan-1-ol]	2.9	2.9	> 10000	0.4	0.8	0.8	0.7	3.7	0.2	0.5
CN1CCN(C(=O)c2ccc(-c3cnc(Nc4ccnc(-c5cnn(S(=O)(=O)C6CC6)c5)n4)cc3N[C@H]3CC[C@@](C)(O)CC3)nc2)CC1 [Example 199, (6′-((2-(1-(Cyclopropylsulfonyl)-1H-pyrazol-4-yl)pyrimidin-4-yl)amino)-4′-(((1s,4s)-4-hydroxy-4-methylcyclohexyl)amino)-[2,3′-bipyridin]-5-yl)(4-methylpiperazin-1-yl)methanone]	0.4	0.3	137	0.3	0.7	0.04	0.1	0.3	0.1	0.4
